Molecules are shown by their SMILES.

As a reminder, the IC50 is the point on the concentration scale where inhibition reaches its midpoint.

For this experiment, the system named is JAK1-dependent STAT6 phosphorylation downstream of IL-13 stimulation in TF-1 human erythroleukemia cells. In words: cells. To be noted: TF-1, read-out: IL-13-pSTAT6 IC50.
Take `Cc1cccc(C(C)NC(=O)c2ccc(Nc3nc4c(C5=CCN(C(=O)CCC(F)(F)F)CC5)cccn4n3)cc2)n1` (stereo not drawn) [Example 2-401, N-[1-(6-methyl-2-pyridyl)ethyl]-4-[[8-[1-(4,4,4-trifluorobutanoyl)-3,6-dihydro-2H-pyridin-4-yl]-[1,2,4]triazolo[1,5-a]pyridin-2-yl]amino]benzamide]: the IC50 was determined as 6 nM. In the case of `CN(Cc1cccnc1)C(=O)c1ccc(Nc2nc3c(C4=CCN(C(=O)CCC(F)(F)F)CC4)cccn3n2)cc1` [Example 2-402, N-methyl-N-(3-pyridylmethyl)-4-[[8-[1-(4,4,4-trifluorobutanoyl)-3,6-dihydro-2H-pyridin-4-yl]-[1,2,4]triazolo[1,5-a]pyridin-2-yl]amino]benzamide], the IC50 worked out at 5.6 nM. With `O=C(CCC(F)(F)F)N1CC=C(c2cccn3nc(Nc4ccc(C(=O)N5CCCC(N6CCCCCC6)C5)cc4)nc23)CC1` (stereo not drawn) [Example 2-403, 1-[4-[2-[4-[3-(azepan-1-yl)piperidine-1-carbonyl]anilino]-[1,2,4]triazolo[1,5-a]pyridin-8-yl]-3,6-dihydro-2H-pyridin-1-yl]-4,4,4-trifluoro-butan-1-one] the figure was 7.4 nM; with `O=C(CCC(F)(F)F)N1CC=C(c2cccn3nc(Nc4ccc(C(=O)N5CCC(Cc6ccccn6)CC5)cc4)nc23)CC1` [Example 2-404, 4,4,4-trifluoro-1-[4-[2-[4-[4-(2-pyridylmethyl)piperidine-1-carbonyl]anilino]-[1,2,4]triazolo[1,5-a]pyridin-8-yl]-3,6-dihydro-2H-pyridin-1-yl]butan-1-one], 13.2 nM. With `O=C(CCC(F)(F)F)N1CC=C(c2cccn3nc(Nc4ccc(C(=O)N5CCC(Cc6cccnc6)C5)cc4)nc23)CC1` (stereo not drawn) [Example 2-405, 4,4,4-trifluoro-1-[4-[2-[4-[3-(3-pyridylmethyl)pyrrolidine-1-carbonyl]anilino]-[1,2,4]triazolo[1,5-a]pyridin-8-yl]-3,6-dihydro-2H-pyridin-1-yl]butan-one], the IC50 came to 7.5 nM.

For the molecule `CN(Cc1ccc(N(C)C)cc1)C(=O)c1ccc(Nc2nc3c(C4=CCN(C(=O)CCC(F)(F)F)CC4)cccn3n2)cc1` [Example 2-406, N-[[4-(dimethylamino)phenyl]-methyl]-N-methyl-4-[[8-[1-(4,4,4-trifluorobutanoyl)-3,6-dihydro-2H-pyridin-4-yl]-[1,2,4]triazolo[1,5-a]pyridin-2-yl]amino]benzamide], the IC50 was 40.4 nM. Take `CN(Cc1ccncc1)C(=O)c1ccc(Nc2nc3c(C4=CCN(C(=O)CCC(F)(F)F)CC4)cccn3n2)cc1` [Example 2-407, N-methyl-N-(4-pyridylmethyl)-4-[[8-[1-(4,4,4-trifluorobutanoyl)-3,6-dihydro-2H-pyridin-4-yl]-[1,2,4]triazolo[1,5-a]pyridin-2-yl]amino]benzamide]: the IC50 turned out to be 4.7 nM. Regarding `CN1CCC(N(C)C(=O)c2ccc(Nc3nc4c(C5=CCN(C(=O)c6ccccc6)CC5)cccn4n3)cc2)CC1` [Example 2-408, 4-[[8-(1-benzoyl-3,6-dihydro-2H-pyridin-4-yl)-[1,2,4]triazolo[1,5-a]pyridin-2-yl]amino]-N-methyl-N-(1-methyl-4-piperidyl)benzamide], the IC50 is 188 nM.

For the molecule `CN1CCC(N(C)C(=O)c2ccc(Nc3nc4c(C5=CCN(C(=O)C6CC6)CC5)cccn4n3)cc2)CC1` [Example 2-409, 4-[[8-[1-(cyclopropanecarbonyl)-3,6-dihydro-2H-pyridin-4-yl]-[1,2,4]triazolo[1,5-a]pyridin-2-yl]amino]-N-methyl-N-(1-methyl-4-piperidyl)benzamide], the IC50 came out at 124 nM. `CC(C)C(=O)N1CC=C(c2cccn3nc(Nc4ccc(C(=O)N(C)C5CCN(C)CC5)cc4)nc23)CC1` [Example 2-410, N-methyl-N-(1-methyl-4-piperidyl)-4-[[8-[1-(2-methylpropanoyl)-3,6-dihydro-2H-pyridin-4-yl]-[1,2,4]triazolo[1,5-a]pyridin-2-yl]amino]benzamide]: the IC50 was 130 nM. Take `COCCC(=O)N1CC=C(c2cccn3nc(Nc4ccc(C(=O)N(C)C5CCN(C)CC5)cc4)nc23)CC1` [Example 2-411, 4-[[8-[1-(3-methoxypropanoyl)-3,6-dihydro-2H-pyridin-4-yl]-[1,2,4]triazolo[1,5-a]pyridin-2-yl]amino]-N-methyl-N-(1-methyl-4-piperidyl)benzamide]: the IC50 was found to be 348 nM. `CC(C)CCC(=O)N1CC=C(c2cccn3nc(Nc4ccc(C(=O)N(C)C5CCN(C)CC5)cc4)nc23)CC1` [Example 2-412, N-methyl-4-[[8-[1-(4-methylpentanoyl)-3,6-dihydro-2H-pyridin-4-yl]-[1,2,4]triazolo[1,5-a]pyridin-2-yl]amino]-N-(1-methyl-4-piperidyl)benzamide]: the IC50 was 26.5 nM. On to `CN1CCC(N(C)C(=O)c2ccc(Nc3nc4c(C5=CCN(C(=O)N6CCOCC6)CC5)cccn4n3)cc2)CC1` [Example 2-413, N-methyl-N-(1-methyl-4-piperidyl)-4-[[8-[1-(morpholine-4-carbonyl)-3,6-dihydro-2H-pyridin-4-yl]-[1,2,4]triazolo[1,5-a]pyridin-2-yl]amino]benzamide], for which the IC50 was 1260 nM. Consider `CCOC(=O)N1CC=C(c2cccn3nc(Nc4ccc(C(=O)NCC5CCCCN5C)cc4)nc23)CC1` (stereo not drawn) [Example 2-415, ethyl 4-[2-[4-[(1-methyl-2-piperidyl)methylcarbamoyl]anilino]-[1,2,4]triazolo[1,5-a]pyridin-8-yl]-3,6-dihydro-2H-pyridine-1-carboxylate], for which the IC50 came to 13 nM. In the case of `CCOC(=O)N1CC=C(c2cccn3nc(Nc4ccc(C(=O)NCCC5CCCNC5)cc4)nc23)CC1` (stereo not drawn) [Example 2-416, ethyl 4-[2-[4-[2-(3-piperidyl)ethylcarbamoyl]anilino]-[1,2,4]triazolo[1,5-a]pyridin-8-yl]-3,6-dihydro-2H-pyridine-1-carboxylate], the IC50 is 598 nM. `CCOC(=O)N1CC=C(c2cccn3nc(Nc4ccc(C(=O)N5CC(C(=O)N6CCN(C)CC6)C5)cc4)nc23)CC1` [Example 2-421, ethyl 4-[2-[4-[3-(4-methylpiperazine-1-carbonyl)azetidine-1-carbonyl]anilino]-[1,2,4]triazolo[1,5-a]pyridin-8-yl]-3,6-dihydro-2H-pyridine-1-carboxylate]: the IC50 was 24.1 nM. To `CCOC(=O)N1CC=C(c2cccn3nc(Nc4ccc(C(=O)NCCc5cccnc5)cc4)nc23)CC1` [Example 2-422, ethyl 4-[2-[4-[2-(3-pyridyl)ethylcarbamoyl]anilino]-[1,2,4]triazolo[1,5-a]pyridin-8-yl]-3,6-dihydro-2H-pyridine-1-carboxylate] belongs 14 nM; to `CCOC(=O)N1CC=C(c2cccn3nc(Nc4ccc(C(=O)NCCc5ccccn5)cc4)nc23)CC1` [Example 2-423, ethyl 4-[2-[4-[2-(2-pyridyl)ethylcarbamoyl]anilino]-[1,2,4]triazolo[1,5-a]pyridin-8-yl]-3,6-dihydro-2H-pyridine-1-carboxylate], 17.3 nM.

For the molecule `CCOC(=O)N1CC=C(c2cccn3nc(Nc4ccc(C(=O)NCC5CCNCC5)cc4)nc23)CC1` [Example 2-425, ethyl 4-[2-[4-(4-piperidylmethylcarbamoyl)anilino]-[1,2,4]triazolo[1,5-a]pyridin-8-yl]-3,6-dihydro-2H-pyridine-1-carboxylate], the IC50 worked out at 226 nM. As for `CCOC(=O)N1CC=C(c2cccn3nc(Nc4ccc(C(=O)N5CCC(Cc6cccnc6)C5)cc4)nc23)CC1` (stereo not drawn) [Example 2-426, ethyl 4-[2-[4-[3-(3-pyridylmethyl)pyrrolidine-1-carbonyl]anilino]-[1,2,4]triazolo[1,5-a]pyridin-8-yl]-3,6-dihydro-2H-pyridine-1-carboxylate], the IC50 is 51 nM. To `CCOC(=O)N1CC=C(c2cccn3nc(Nc4ccc(C(=O)NCC5CCCNC5)cc4)nc23)CC1` (stereo not drawn) [Example 2-427, ethyl 4-[2-[4-(3-piperidylmethylcarbamoyl)anilino]-[1,2,4]triazolo[1,5-a]pyridin-8-yl]-3,6-dihydro-2H-pyridine-1-carboxylate] belongs 215 nM; to `CCOC(=O)N1CC=C(c2cccn3nc(Nc4ccc(C(=O)NCCC5CCCCN5)cc4)nc23)CC1` (stereo not drawn) [Example 2-428, ethyl 4-[2-[4-[2-(2-piperidyl)ethylcarbamoyl]anilino]-[1,2,4]triazolo[1,5-a]pyridin-8-yl]-3,6-dihydro-2H-pyridine-1-carboxylate], 463 nM.

On to `CCOC(=O)N1CC=C(c2cccn3nc(Nc4ccc(C(=O)N5CCCN(c6ccncc6)CC5)cc4)nc23)CC1` [Example 2-429, ethyl 4-[2-[4-[4-(4-pyridyl)-1,4-diazepane-1-carbonyl]anilino]-[1,2,4]triazolo[1,5-a]pyridin-8-yl]-3,6-dihydro-2H-pyridine-1-carboxylate], for which the IC50 came out at 27.4 nM.

`CCOC(=O)N1CC=C(c2cccn3nc(Nc4ccc(C(=O)N5CC6(CN(C(C)=O)C6)C5)cc4)nc23)CC1` [Example 2-432, ethyl 4-[2-[4-(6-acetyl-2,6-diazaspiro[3.3]heptane-2-carbonyl)anilino]-[1,2,4]triazolo[1,5-a]pyridin-8-yl]-3,6-dihydro-2H-pyridine-1-carboxylate]: the IC50 was determined as 43 nM. Regarding `CCOC(=O)N1CC=C(c2cccn3nc(Nc4ccc(C(=O)NC5CCN(C)C5)cc4)nc23)CC1` (stereo not drawn) [Example 2-433, ethyl 4-[2-[4-[(1-methylpyrrolidin-3-yl)carbamoyl]anilino]-[1,2,4]triazolo[1,5-a]pyridin-8-yl]-3,6-dihydro-2H-pyridine-1-carboxylate], the IC50 stood at 13.2 nM. In the case of `CCOC(=O)N1CC=C(c2cccn3nc(Nc4ccc(C(=O)N[C@H]5[C@@H]6CNC[C@@H]65)cc4)nc23)CC1` [Example 2-434, ethyl 4-[2-[4-[[(1S,5R)-3-azabicyclo[3.10]hexan-6-yl]carbamoyl]anilino]-[1,2,4]triazolo[1,5-a]pyridin-8-yl]-3,6-dihydro-2H-pyridine-1-carboxylate], the IC50 was found to be 232 nM. To `CCOC(=O)N1CC=C(c2cccn3nc(Nc4ccc(C(=O)N5CC6(CCCCN6)C5)cc4)nc23)CC1` [Example 2-437, ethyl 4-[2-[4-(2,5-diazaspiro[3.5]nonane-2-carbonyl)anilino]-[1,2,4]triazolo[1,5-a]pyridin-8-yl]-3,6-dihydro-2H-pyridine-1-carboxylate] belongs 33.7 nM.

Values taken from patent publication US9873709B2 (priority 2013, dated 2018).
